# Reference: patent publication US12629355B2, “Drug inhibitor against migration and invasion of cancer cells and methods of treating against metastasis of cancer cells” (HOWARD UNIVERSITY, priority 2019, dated 2026)
# Experiments:
# Format in all cases: cell-based
# [1] = system: RACK1 / LamB1 co-localization; assay: Co-localization of RACK1 with ECM protein LamB1, immunofluorescence (FIG. 11); conditions: U251 cells, TGFbeta1, 72 h
# Source text: For effective migration, cell adhesion to the ECM is necessary and cell surface localized integrin molecules (alpha and beta) act as a link between the ECM and cell interior by acting as a receptor of the ECM proteins and linking ECM to the intracellular cytoskeleton complex. It is known that RACK1 acts as an integrin binding protein (Hermanto et al., 2002) and interaction between RACK1 and β1 integrin has been reported to mediate cancer cell invasion as reported in prostate cancer invasion and metastasis (Trerotola et al., 2012). RACK1 can promote tumor cell migration by using its scaffolding ability to bridge together different signaling proteins that integrate signaling from receptors cytoskeleton reorganization pathways. Laminin being a major ECM protein can therefor interact with integrins for cell adhesion and in this regard is expected to modulate by the RACK1 proteins scaffolding ability as discussed above. […] Lack of colocalization indicate that the link between the ECM proteins and intracellular cytoskeleton complex are interrupted and as such inhibiting this complex mediated migration signaling pathways.
# As to FIG. 11, and methods of Immunofluorescence and confocal microscopy, U251 cells were grown to about 80% confluency in 12 well plate on glass cover slips and the cells were co-treated with the TGFb and indicated compounds for 72 h. […]
# U251 cells [2] = assay: Migration through Matrigel, cell shape differentiation (FIG. 16-19)
# Protocol: Within 24 h of the placement of the cells on the matrigel, the cells were able to migrate through the matrigel and were captured on the glass coverslip beneath the matrigel layer.
# The cells are labeled with an antibody (pY397-FAK) and detected with a rabbit-TRITC secondary antibody. The antibody staining allowed to visualize the cells clearly but the autofluorescence of the Matrigel made it hard to pinpoint the precise localization of the pY397-FAK protein.
# As to FIG. 19, and related methods, freshly harvested 10^5 cells in MEM no serum media+/−drugs (500 μl) placed on coverslip covered with 200 μl of 1:12 matrigel diluted with MEM serum free media in a 24 well plate. After 24 h, the matrigel was carefully removed by tilting wells and drawing from the tilted side of the wells and washing thoroughly with PBS to remove the matrigel completely (all crumbs removed as their auto fluorescence makes background during imaging) and then were fixed 10 minutes with 4% paraformaldehyde. Washed 2× with PBS; use 5% Urea to treat the cells at 95 C for 10 minutes, wash 2×PBS; permeabilize with 0.5% saponin in PBS; block cells with 3% BSA in PBST for 30 min; Overnight Primary antibody (ThermoFisher Cat #70025-pFAK397 rabbit at 1:250) in 1% BSA in PBST at 4 C, secondary (Rabbit-TRITC) also 1% BSA in PBST for one hour (1:1000).
# U251 cells [3] = assay: Actin stress fiber development in lamellipodia (FIG. 6); conditions: U251 cells grown 72 h, versus DMSO
# Source text: Actin stress fibers are known to regulate the mesenchymal migrating cells by regulating the myosin-based contractility to achieve directional cell migration (Vallenius 2013). […] As these stress fibers are needed for other cellular functions required for directional movement, a lack of a visible stress fibers should inhibit cells treated with a representative compound (SD 29-14) from acquiring necessary traction generation to migrate. Actin stress fiber development has been reported to be needed to generate traction forces, establishment of the front-to-back polarity axis, retraction of the trailing edge, and extracellular matrix remodeling-development that collectively regulates the directional movement of migrating cell (Vallenius 2013). The cells were grown 72 h at conditions described for the cells imaged in FIG. 4 and were photographed under a Zeiss brand compound microscope at 40× magnification.
# pY397-FAK = pY397-FAK expression, immunofluorescence (FIG. 14); conditions: MCF7 cells, 96 h, 5 ng/ml TGF-beta
# Source text: As to FIGS. 14 and 15, in order to evaluate the effect of a representative compound (SD 29-14) as a drug for inducing functional inactivation of RACK1 on the FAK phosphorylation, the drug was used in testing with breast cancer cells (MCF7, FIG. 14) and with glioblastoma cancer cells (U251, FIG. 15). In this immunofluorescence experiment, the pY397-FAK expressing cells were stained with FITC tagged secondary antibody (green) and RACK1 was stained with TRITC tagged secondary antibody (red). Here 5 ng/ml TGFbeta was used to induce cell migration. […] As discussed above, without the pY397-FAK present, the connection between the ECM and cell interiors will be disrupted which will inhibit the cell's potential to migrate by initiating the cell's adhesion to the ECM.
# As to FIGS. 14 and 15, and the methods, the immunofluorescence experiments are essentially same as described with reference to FIG. 9 with a slight modification in the duration of the drug treatment. The cancer cells (MCF7 or U251) were incubated with a drug (SD 29-14) or with DMSO (left panel) for 96 h in the presence of 5 ng/ml TGF-beta. After indicated incubation period, the cells were fixed and stained with antibody as described for FIG. 9 methods.
structure (smiles),measurement,setting,value
Nn1c(S)nnc1-c1cc(Cl)cc(Cl)c1 [SD 29-14],co-localization of RACK1 and Lamb1 at the cell surface,[1],this interaction was absent
same,"filipodia, invadopodia, lamellipodia structures and cell-cell adhesion during invasion through matrigel","U251 cells [2]; 10 μM, 24 h (FIG. 17)",those structures where inhibited and the cells mostly maintained their cell-cell adhesion
same,"filipodia, invadopodia, lamellipodia structures and cell-cell adhesion during invasion through matrigel","U251 cells [2]; 100 μM, 24 h (FIG. 18)",those structures where inhibited and the cells mostly maintained their cell-cell adhesion
same,actin stress fiber development in lamellipodia,U251 cells [3],no visible stress fiber like radiating structures were visible
same,expression of pY397-FAK at the cell protrusions,pY397-FAK,almost completely inhibited
